Each molecule was assayed against SHP2 (Homo sapiens (Human), UniProt Q06124) (assay: SHP2 Allosteric Inhibition Assay). Details: 0.5 nM SHP2 activated with 0.5 μM peptide IRS1_pY1172(dPEG8)pY1222; surrogate substrate DiFMUP; prompt fluorescence.
Assay type: biochemical
Source text: SHP2 Allosteric Inhibition Assay
SHP2 is allosterically activated through binding of bis-tyrosyl-phorphorylated peptides to its Src Homology 2 (SH2) domains. The latter activation step leads to the release of the auto-inhibitory interface of SHP2, which in turn renders the SHP2 protein tyrosine phosphatase (PTP) active and available for substrate recognition and reaction catalysis. The catalytic activity of SHP2 was monitored using the surrogate substrate DiFMUP in a prompt fluorescence assay format.
After 30-60 minutes incubation at 25° C., the surrogate substrate DiFMUP (Invitrogen, cat #D6567) was added to the reaction and incubated at 25° C. for 30 minutes. […] The inhibitor dose response curves were analyzed using normalized IC50 regression curve fitting with control based normalization.

Chain of SHP2 (Q06124 whole entry): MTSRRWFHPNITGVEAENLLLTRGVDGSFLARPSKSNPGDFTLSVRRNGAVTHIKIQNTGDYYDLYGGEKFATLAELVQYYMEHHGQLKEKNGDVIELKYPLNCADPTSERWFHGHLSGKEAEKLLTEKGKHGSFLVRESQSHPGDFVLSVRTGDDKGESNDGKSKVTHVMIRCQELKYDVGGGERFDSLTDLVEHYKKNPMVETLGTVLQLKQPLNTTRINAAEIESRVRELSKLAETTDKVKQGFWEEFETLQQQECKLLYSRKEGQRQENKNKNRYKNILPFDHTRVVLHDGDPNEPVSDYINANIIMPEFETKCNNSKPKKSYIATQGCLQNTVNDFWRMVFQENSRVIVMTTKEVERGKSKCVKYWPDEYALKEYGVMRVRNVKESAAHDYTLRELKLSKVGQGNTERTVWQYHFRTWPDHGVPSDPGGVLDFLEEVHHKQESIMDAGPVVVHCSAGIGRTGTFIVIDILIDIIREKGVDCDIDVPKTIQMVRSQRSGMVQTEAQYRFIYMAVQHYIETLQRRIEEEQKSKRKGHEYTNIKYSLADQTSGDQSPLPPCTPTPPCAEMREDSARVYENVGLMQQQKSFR

| Compound | IC50 [nM] |
| --- | --- |
| Nc1nc(N2CCC(N)(CF)CC2)cnc1Sc1cccc(NC(=O)c2c(O)nc3n(c2=O)CCCC3)c1Cl [Example 14, N-(3-((3-amino-5-(4-amino-4-(fluoromethyl)piperidin-1-yl)pyrazin-2-yl)thio)-2-chlorophenyl)-2-hydroxy-4-oxo-6,7,8,9-tetrahydro-4H-pyrido[1,2-a]pyrimidine-3-carboxamide] | 5.9 |
| CCC1C(O)=C(C(=O)Nc2cccc(Sc3ccc4nc(N5CCCCC5)[nH]c4n3)c2Cl)C(=O)N1c1ccccc1 (centres unmarked) [Example 63, N-(2-chloro-3-((2-(piperidin-1-yl)-3H-imidazo[4,5-b]pyridin-5-yl)thio)phenyl)-5-ethyl-4-hydroxy-2-oxo-1-phenyl-2,5-dihydro-1H-pyrrole-3-carboxamide] | 52 |
| CC1(CN)CCN(c2cnc(Sc3cccc(NC(=O)c4c(O)nc5cnccn5c4=O)c3Cl)c(N)n2)CC1 [Example 5, N-(3-((3-amino-5-(4-(aminomethyl)-4-methylpiperidin-1-yl)pyrazin-2-yl)thio)-2-chlorophenyl)-2-hydroxy-4-oxo-4H-pyrazino[1,2-a]pyrimidine-3-carboxamide] | 3 |
| CNC1(C)CCN(c2cnc(Sc3cccc(NC(=O)C4=C(O)CN(c5ccccc5)C4=O)c3Cl)c(N)n2)CC1 [Example 56, N-(3-((3-amino-5-(4-methyl-4-(methylamino)piperidin-1-yl)pyrazin-2-yl)thio)-2-chlorophenyl)-4-hydroxy-2-oxo-1-phenyl-2,5-dihydro-1H-pyrrole-3-carboxamide] | 6.6 |
| CC1(N)CCN(c2nc3ccc(Sc4cccc(NC(=O)C5=C(O)CN(c6ccccc6)C5=O)c4Cl)nc3[nH]2)CC1 [Example 47, N-(3-((2-(4-amino-4-methylpiperidin-1-yl)-3H-imidazo[4,5-b]pyridin-5-yl)thio)-2-chlorophenyl)-4-hydroxy-2-oxo-1-phenyl-2,5-dihydro-1H-pyrrole-3-carboxamide] | 3 |
| NCC1CCN(c2cnc(Sc3cccc(NC(=O)c4c(O)nc5ccccn5c4=O)c3Cl)c(N)n2)C1 (centres unmarked) [Example 17] | 13 |
| O=C(Nc1cccc(Sc2ccc3nc(N4CCCCC4)[nH]c3n2)c1Cl)c1c(O)nc2ccccn2c1=O [Example 48, N-(2-chloro-3-((2-(piperidin-1-yl)-3H-imidazo[4,5-b]pyridin-5-yl)thio)phenyl)-2-hydroxy-4-oxo-4H-pyrido[1,2-a]pyrimidine-3-carboxamide] | 61 |
| CC1(CN)CCN(c2cnc(Sc3cccc(NC(=O)c4c(O)nc5[nH]ccn5c4=O)c3Cl)c(N)n2)CC1 [Example 6, N-(3-((3-amino-5-(4-(aminomethyl)-4-methylpiperidin-1-yl)pyrazin-2-yl)thio)-2-chloropheny1)-7-hydroxy-5-oxo-1,5-dihydroimidazo[1,2-a]pyrimidine-6-carboxamide] | 5 |
| Cc1oc(=O)oc1COC(=O)NCC1(C)CCN(c2cnc(Sc3cccc(NC(=O)c4c(O)nc5ccccn5c4=O)c3Cl)c(N)n2)CC1 [Example 25, (5-Methyl-2-oxo-1,3-dioxol-4-yl)methyl ((1-(6-amino-5-((2-chloro-3-(2-hydroxy-4-oxo-4H-pyrido[1,2-a]pyrimidine-3-carboxamido)phenyl)thio)pyrazin-2-yl)-4-methylpiperidin-4-yl)methyl)carbamate] | 80 |
| CCC1C(O)=C(C(=O)Nc2cccc(Sc3ccc4nc(N5CCCCC5)[nH]c4n3)c2Cl)C(=O)N1C (centres unmarked) [Example 62, N-(2-chloro-3-((2-(piperidin-1-yl)-3H-imidazo[4,5-b]pyridin-5-yl)thio)phenyl)-5-ethyl-4-hydroxy-1-methyl-2-oxo-2,5-dihydro-1H-pyrrole-3-carboxamide] | 25 |
| CC1(N)CCN(c2cnc(Sc3cccc(NC(=O)c4c(O)c5ccccc5[nH]c4=O)c3Cl)c(N)n2)CC1 [Example 58, N-(3-((3-Amino-5-(4-amino-4-methylpiperidin-1-yl)pyrazin-2-yl)thio)-2-chlorophenyl)-4-hydroxy-2-oxo-1,2-dihydroquinoline-3-carboxamide] | 72 |
| CC1(CN)CCN(c2cnc(Sc3cccc(NC(=O)c4c(O)nc5n(c4=O)CCNC5)c3Cl)c(N)n2)CC1 [Example 9, N-(3-((3-amino-5-(4-(aminomethyl)-4-methylpiperidin-1-yl)pyrazin-2-yl)thio)-2-chlorophenyl)-2-hydroxy-4-oxo-6,7,8,9-tetrahydro-4H-pyrazino[1,2-a]pyrimidine-3-carboxamide] | 7 |
| CC1(N)CCN(c2cnc(Sc3ccc(NC(=O)C4=C(O)CN(c5ccccc5)C4=O)cc3Cl)c(N)n2)CC1 [Example 50, N-(4-((3-Amino-5-(4-amino-4-methylpiperidin-1-yl)pyrazin-2-yl)thio)-3-chlorophenyl)-4-hydroxy-2-oxo-1-phenyl-2,5-dihydro-1H-pyrrole-3-carboxamide] | 70 |
| CC1(CN)CCN(c2nnc(Sc3cccc(NC(=O)c4c(O)nc5n(c4=O)CCCC5)c3Cl)c(N)n2)CC1 [Example 36, N-(3-((5-amino-3-(4-(aminomethyl)-4-methylpiperidin-1-yl)-1,2,4-triazin-6-yl)thio)-2-chlorophenyl)-2-hydroxy-4-oxo-6,7,8,9-tetrahydro-4H-pyrido[1,2-a]pyrimidine-3-carboxamide] | 12 |
| O=C(Nc1cccc(Sc2ccc3nc(N4CCCCC4)[nH]c3n2)c1Cl)c1c(O)c2nccnc2[nH]c1=O [Example 49, N-(2-chloro-3-((2-(piperidin-1-yl)-3H-imidazo[4,5-b]pyridin-5-yl)thio)phenyl)-8-hydroxy-6-oxo-5,6-dihydropyrido[2,3-b]pyrazine-7-carboxamide] | 36 |
| CC1(N)CCN(c2cnc(Sc3cccc(NC(=O)c4c(O)nc5n(c4=O)CCCC5)c3Cl)cn2)CC1 [Example 44, N-(3-((5-(4-amino-4-methylpiperidin-1-yl)pyrazin-2-yl)thio)-2-chlorophenyl)-2-hydroxy-4-oxo-6,7,8,9-tetrahydro-4H-pyrido[1,2-a]pyrimidine-3-carboxamide] | 14 |
| CC1(CN)CCN(c2nnc(Sc3cccc(NC(=O)C4=C(O)NC5CCCCN5C4=O)c3Cl)c(N)n2)CC1 (centres unmarked) [Example 37, N-(3-((5-amino-3-(4-(aminomethyl)-4-methylpiperidin-1-yl)-1,2,4-triazin-6-yl)thio)-2-chlorophenyl)-2-hydroxy-4-oxo-4,6,7,8,9,9a-hexahydro-1H-pyrido[1,2-a]pyrimidine-3-carboxamide] | 6 |
| CC1(N)CCN(c2cnc(Sc3cccc(NC(=O)C4=C(O)CN(c5ccccc5)C4=O)c3)c(N)n2)CC1 [Example 66, N-(3-((3-Amino-5-(4-amino-4-methylpiperidin-1-yl)pyrazin-2-yl)thio)phenyl)-4-hydroxy-2-oxo-1-phenyl-2,5-dihydro-1H-pyrrole-3-carboxamide] | 17 |
| N#CC1(CN)CCN(c2cnc(Sc3cccc(NC(=O)c4c(O)nc5n(c4=O)CCCC5)c3Cl)c(N)n2)CC1 [Example 12, N-(3-((3-amino-5-(4-(aminomethyl)-4-cyanopiperidin-1-yl)pyrazin-2-yl)thio)-2-chlorophenyl)-2-hydroxy-4-oxo-6,7,8,9-tetrahydro-4H-pyrido[1,2-a]pyrimidine-3-carboxamide] | 260 |
| Nc1nc(N2CCC(N)(C(F)(F)F)CC2)cnc1Sc1cccc(NC(=O)c2c(O)nc3n(c2=O)CCCC3)c1Cl [Example 20, N-(3-((3-amino-5-(4-amino-4-(trifluoromethyl)piperidin-1-yl)pyrazin-2-yl)thio)-2-chlorophenyl)-2-hydroxy-4-oxo-6,7,8,9-tetrahydro-4H-pyrido[1,2-a]pyrimidine-3-carboxamide] | 5000 |
| O=C(Nc1cccc(Sc2ccc3nc(N4CCCCC4)[nH]c3n2)c1Cl)C1=C(O)[C@H](c2ccccc2)NC1=O [Example 64, (S)-N-(2-chloro-3-((2-(piperidin-1-yl)-3H-imidazo[4,5-b]pyridin-5-yl)thio)phenyl)-4-hydroxy-2-oxo-5-phenyl-2,5-dihydro-1H-pyrrole-3-carboxamide] | 90 |
| Nc1nc(N2CCC(C(N)C(F)(F)F)C2)cnc1Sc1cccc(NC(=O)c2c(O)nc3ccccn3c2=O)c1Cl (centres unmarked) [Example 18, N-(3-((3-amino-5-(3-(1-amino-2,2,2-trifluoroethyl)pyrrolidin-1-yl)pyrazin-2-yl)thio)-2-chlorophenyl)-2-hydroxy-4-oxo-4H-pyrido[1,2-a]pyrimidine-3-carboxamide] | 789 |
| CC1(N)CCN(c2nc3ccc(Sc4cccc(NC(=O)C5=C(O)CN(c6ccccc6)C5=O)c4)nc3[nH]2)CC1 [Example 46, N-(3-((2-(4-Amino-4-methylpiperidin-1-yl)-3H-imidazo[4,5-b]pyridin-5-yl)thio)phenyl)-4-hydroxy-2-oxo-1-phenyl-2,5-dihydro-1H-pyrrole-3-carboxamide] | 70 |
| CC1(CN)CCN(c2cnc(Sc3cccc(NC(=O)c4c(O)nc5n(c4=O)CCCC5)c3Cl)c(N)n2)CC1 [Example 7, N-(3-((3-amino-5-(4-(aminomethyl)-4-methylpiperidin-1-yl)pyrazin-2-yl)thio)-2-chlorophenyl)-2-hydroxy-4-oxo-6,7,8,9-tetrahydro-4H-pyrido[1,2-a]pyrimidine-3-carboxamide] | 6 |
| CN1C(=O)C(C(=O)Nc2cccc(Sc3ccc4nc(N5CCCCC5)[nH]c4n3)c2Cl)=C(O)C1(C)C [Example 65, N-(2-chloro-3-((2-(piperidin-1-yl)-3H-imidazo[4,5-b]pyridin-5-yl)thio)phenyl)-4-hydroxy-1,5,5-trimethyl-2-oxo-2,5-dihydro-1H-pyrrole-3-carboxamide] | 42 |
| CC1(N)CCN(c2nnc(Sc3cccc(NC(=O)C4=C(O)CN(c5ccccc5)C4=O)c3Cl)c(N)n2)CC1 [Example 52, N-(3-((5-amino-3-(4-amino-4-methylpiperidin-1-yl)-1,2,4-triazin-6-yl)thio)-2-chlorophenyl)-4-hydroxy-2-oxo-1-phenyl-2,5-dihydro-1H-pyrrole-3-carboxamide] | 3 |

From patent US10934285B2, “Compounds and compositions for inhibiting the activity of SHP2” (Novartis AG, priority 2016, dated 2021)
